# Laboratory results from US20030181390A1, “Amino acid conjugates providing for sustained systemic concentrations of GABA analogues” (priority 2002, published 2003).
# Where two headings read alike, the source gives them in different places.
# What was measured:
# [1] = Caco-2 homogenate S9 stability / release of gabapentin; format: in vitro ADME; details: incubation with Caco-2 homogenate for 1 hour
# Method: The stability of aminoacyl-gabapentin conjugates was evaluated by incubating the conjugates in the various tissue and enzyme-containing preparations listed in Table 1 below.
# Tissue homogenates and plasma samples were obtained from commercial sources (Pel-Freez Biologicals, Rogers, Ariz., and GenTest Corporation, Woburn, Mass.). Stability of prodrugs toward the specific enzyme aminopeptidase was also evaluated by incubation with the purified enzyme. Experimental conditions used for the in vitro studies were as follows. Each preparation was incubated with test compound at 37° C. for one hour. Aliquots (50 μL) were removed at 0, 30, and 60 min and quenched with 0.1% trifluoroacetic acid in acetonitrile. Samples were then centrifuged and analyzed for the presence of prodrug and released gabapentin by LC/MS/MS as described below.
# Concentrations of prodrug or gabapentin in tissue extracts were determined by direct injection onto an API 2000 LC/MS/MS equipped with an Agilent 1100 binary pump and autosampler. Separation was achieved using a 3.5 μm Zorbax Ellipse XDB-C8 4.4×150 mm column heated to 45° C. during the analysis. The mobile phases were: 0.1% formic acid in water (A) and 0.1% formic acid in acetonitrile (B). The gradient condition was: 2% B for 0.5 min, increasing to 90% B in 2.0 min, maintained for 2.5 min and returning to 2% B for 2 min. A TurboIonSpray source was used on the API 2000. The analysis was performed in the positive ion mode and MRM transitions of 172.0/137.2 were used in the analysis of gabapentin (2). Ten microliters of the sample extracts were injected. Peaks were integrated using Analyst quantitation software. The method was linear for (2) over the concentration range 0.002 to 2.5 μg/mL respectively.
# The stability of gabapentin-containing prodrugs to Caco-2 homogenates was evaluated as follows:
# Caco-2 Homogenate S9 Stability: Caco-2 cells were grown for 21 days prior to harvesting. Culture medium was removed and cell monolayers were rinsed and scraped off into ice-cold 10 mM sodium phosphate/0.15 M potassium chloride, pH 7.4. Cells were lysed by sonication at 4° C. using a probe sonicator. Lysed cells were then transferred into 1.5 mL centrifuge vials and centrifuged at 9000 g for 20 min at 4° C. The resulting supernatant (Caco-2 cell homogenate S9 fraction) was aliquoted into 0.5 mL vials and stored at −80° C. until used.
# For stability studies, prodrug (5 μM) was incubated in Caco-2 homogenate S9 fraction (0.5 mg protein per mL) for 60 min at 37° C. Concentrations of intact prodrug and released drug were determined at zero time and 60 minutes using LC/MS/MS.
# in vivo [2] = details: rat; for Cmax for prodrug (Cmax PD) in plasma: single oral dose of prodrug, 25 mg-equivalents of gabapentin per kg
# Method: The pharmacokinetics of the prodrugs prepared in Examples 1 and 3 were examined in rats. […] Animals were fasted overnight prior to dosing and until 4 hours post-dosing. Serial blood samples were obtained over 24 hours following dosing and blood was processed for plasma by centrifugation. Plasma samples were stored at −80° C. until analyzed.
# Plasma (50 μL) was precipitated by addition of […] of methanol and supernatant was injected directly onto the LC/MS/MS system. […] Following oral administration of gabapentin prodrugs, concentrations of prodrug and gabapentin in plasma were monitored over 24 hours.
# [3] = rat, intracolonic, sodium salt, dose equivalent to 25 mg of gabapentin per kg
# Method: Rats were obtained commercially and were pre-cannulated in the both the ascending colon and the jugular vein. Animals were conscious at the time of the experiment. All animals were fasted overnight and until 4 hours post-dosing. […] Blood samples (0.5 mL) were obtained from the jugular cannula at intervals over 8 hours and were quenched immediately by addition of acetonitrile/methanol to prevent further conversion of the prodrug.
# [4] = monkey, sodium salt in water, 10 mg-equivalents of gabapentin per kg
# [5] = rat; for fraction of prodrug absorbed intact following oral administration: oral and i.v. dosing of prodrug
# [6] = monkey; for AUC for gabapentin (AUC G) / Cmax for gabapentin (Cmax G) / increase in gabapentin exposure (as measured by AUC) for a 7.5-fold increase in dose: oral; for increase in gabapentin exposure (as measured by AUC) for a 7.5-fold increase in dose: 10 to 75 mg-eq/kg
# Method: (§6) The prodrug was administered orally to four adult male monkeys (approximate body weight of 6.5 kg) via an oral nasogastric tubeas solutions in water or PEG 400. The dose was 10 or 75 mg-equivalents of gabapentin per kg body weight. Animals were fasted overnight before the study and for 4 hours post-dosing. Blood samples (1.0 mL) were obtained via femoral or cephalic venipuncture at intervals over 48 hours after oral dosing. Blood was processed immediately for plasma and plasma was frozen at −80° C. until analyzed. […] Oral bioavailability was determined by comparison of area under the gabapentin concentration versus time curve (AUC) following oral administration of prodrug or intravenous administration of an equimolar dose of gabapentin hydrochloride.
# PEPT1 = details: tested at 1 mM on oocytes expressing PEPT1; normalised to 1 mM glycyl-sarcosine
# Method: (§1) Rat and human PEPT1 and PEPT2 expressing CHO cell lines were prepared as described in PCT Application WO01/20331. Gabapentin-containing dipeptides were evaluated for interaction with the peptide transporters using a radiolabeled substrate uptake assay in a competitive inhibition format, as described in PCT Application WO01/20331. Transport-induced currents were also measured in Xenopus oocytes transfected with rat and human PEPT1 and PEPT2.
# (§2) (b) Analysis of Electrogenic Transport in Xenopus oocytes
# (§3) RNA preparation: Rat and human PEPT1 and PEPT2 transporter cDNAs were subcloned into a modified pGEM plasmid that contains 5′ and 3′ untranslated sequences from the Xenopus β-actin gene. These sequences increase RNA stability and protein expression. Plasmid cDNA was linearized and used as template for in vitro transcription (Epicentre Technologies transcription kit, 4:1 methylated:non-methylated GTP).
# (§4) Xenopus oocyte isolation. Xenopus laevis frogs were anesthetized by immersion in Tricaine ([…] in deionized water) for 15 min. […]
# (§5) Electrophysiology measurements. Transport currents were measured 2-14 days after injection, using a standard two-electrode electrophysiology set-up (Geneclamp 500 amplifier, Digidata 1320/PCLAMP software and ADInstruments hardware and software were used for signal acquisition).
# PEPT2 = details: tested at 1 mM on oocytes expressing PEPT2; normalised to 1 mM glycyl-sarcosine
# Method: as §1, §2, §3, §4, §5
# [7] = man, cited from earlier work
# in vivo [8] = details: male, monkey, plasma, po
# Method: as §6
# [9] = male, Sprague-Dawley, plasma, po, 25 mg/kg
compound,measurement,setting,value
"N[C@@H](Cc1ccc(C(F)(F)F)cc1)C(=O)NCC1(CC(=O)O)CCCCC1 [1aa, L-4-Trifluoromethylphenylalanine-Gabapentin]",% of prodrug surviving intact,[1],97%
same,Cmax for prodrug (Cmax PD) in plasma,in vivo [2],30000 ng/mL
"N[C@@H](Cc1ccc(Br)cc1)C(=O)NCC1(CC(=O)O)CCCCC1 [1ah, L-4-Bromophenylalanine-Gabapentin]",area under the gabapentin plasma concentration vs. time curve relative to colonic administration of gabapentin itself,[3],> 3 fold
same,maximum plasma concentration of gabapentin relative to colonic administration of gabapentin itself,[3],> 3 fold
same,AUC for gabapentin (AUC G),[4]; oral,29100 ± 3500 ng·h/mL
same,AUC for prodrug (AUC PD),[4]; oral,18900 ± 6500 ng·h/mL
same,Cmax for gabapentin (Cmax G),[4]; oral,3800 ± 1100 ng/mL
same,CmaxPH (Cmax for prodrug),[4]; oral,14900 ± 5300 ng/mL
same,oral bioavailability as gabapentin (F),[4],49.1±6.8%
same,% of prodrug surviving intact,[1],79%
same,fraction of prodrug absorbed intact following oral administration,[5],about 60%
same,oral bioavailability of gabapentin provided by prodrug,[5]; oral dosing of prodrug,about 53%
same,oral bioavailability (F) as gabapentin,in vivo [2]; oral 25 mg/kg (or 25 mg-equivalents of gabapentin per kg) vs intravenous gabapentin,53%
same,maximum plasma concentration (Cmax) of gabapentin,in vivo [2]; single oral dose 25 mg/kg (or 25 mg-equivalents of gabapentin per kg),6100 ng/mL
same,Cmax for prodrug (Cmax PD) in plasma,in vivo [2],103000 ng/mL
"N#Cc1cccc(C[C@H](N)C(=O)NCC2(CC(=O)O)CCCCC2)c1 [1al, L-3-Cyanophenylalanine-Gabapentin]",% of prodrug surviving intact,[1],46%
same,Cmax for prodrug (Cmax PD) in plasma,in vivo [2],600 ng/mL
"N#Cc1ccc(C[C@H](N)C(=O)NCC2(CC(=O)O)CCCCC2)cc1 [1am, L-4-Cyanophenylalanine-Gabapentin]",% of prodrug surviving intact,[1],90%
same,Cmax for prodrug (Cmax PD) in plasma,in vivo [2],22400 ng/mL
"N[C@@H](Cc1cc(F)cc(F)c1)C(=O)NCC1(CC(=O)O)CCCCC1 [1ao, L-3,5-Difluorophenylalanine-Gabapentin]",% of prodrug surviving intact,[1],48%
same,Cmax for prodrug (Cmax PD) in plasma,in vivo [2],2900 ng/mL
"NC(Cc1ccc(F)cc1F)C(=O)NCC1(CC(=O)O)CCCCC1 [1ap, D, L-2,4-Difluorophenylalanine-Gabapentin]",% of prodrug surviving intact,[1],90%
same,Cmax for prodrug (Cmax PD) in plasma,in vivo [2],278000 ng/mL
"N[C@@H](CO)C(=O)NCC1(CC(=O)O)CCCCC1 [1ax, L-Serine-Gabapentin]",oral bioavailability as gabapentin (F),[6]; 10 mg-eq/kg,41.5±12.2%
same,oral bioavailability as gabapentin (F),[6]; 75 mg-eq/kg,28.1±1.1%
same,AUC for gabapentin (AUC G),[6]; 10 mg-eq/kg,24700 ± 7300 ng·h/mL
same,Cmax for gabapentin (Cmax G),[6]; 10 mg-eq/kg,3700 ± 1100 ng/mL
same,AUC for gabapentin (AUC G),[6]; 75 mg-eq/kg,125000 ± 5000 ng·h/mL
same,Cmax for gabapentin (Cmax G),[6]; 75 mg-eq/kg,14500 ± 1600 ng/mL
same,increase in gabapentin exposure (as measured by AUC) for a 7.5-fold increase in dose,[6],5.1 fold
same,fraction of prodrug absorbed intact following oral administration,[5],15-20%
"N[C@@H](Cc1cccc2ccccc12)C(=O)NCC1(CC(=O)O)CCCCC1 [1l, L-1-Naphthylalanine-Gabapentin]",% of prodrug surviving intact,[1],29%
same,Cmax for prodrug (Cmax PD) in plasma,in vivo [2],500 ng/mL
"CC(C)C[C@H](CNC(=O)[C@@H](N)Cc1ccc(Br)cc1)CC(=O)O [compound 5, L-4-Bromophenylalanine-Pregabalin]","PEPT-specific current, % of Imax for Gly-Sar",PEPT1,at least 5 % of Imax for Gly-Sar
same,"PEPT-specific current, % of Imax for Gly-Sar",PEPT2,at least 5 % of Imax for Gly-Sar
NCC1(CC(=O)O)CCCCC1 [gabapentin],increase in gabapentin exposure (as measured by AUC) for a 7.5-fold increase in dose,[6],3.2 fold
same,oral bioavailability,[7]; dose of 300 mg,about 60%
same,oral bioavailability,[7]; dose of 1600 mg,about 35%
same,AUC,in vivo [8]; 10 mg/kg,32100 ± 10400 ng·h/mL
same,Cmax,in vivo [8]; 10 mg/kg,3700 ± 1600 ng/mL
same,bioavailability,in vivo [8]; 10 mg/kg,53.9 ± 17.3%
same,AUC,in vivo [8]; 75 mg/kg,102000 ± 4900 ng·h/mL
same,Cmax,in vivo [8]; 75 mg/kg,10800 ± 1300 ng/mL
same,bioavailability,in vivo [8]; 75 mg/kg,22.9 ± 1.1%
same,Cmax,in vivo [2]; [9],10300 ng/mL
same,half-life,in vivo [2]; [9],2.4 ± 0.5 h
L-Tyrosine-(O-2-Bromobenzyloxycarbonyl)-Gabapentin [4d],% of prodrug surviving intact,[1],3%
